One assay addresses human TLR9 (Homo sapiens (Human), UniProt Q9NR96). As to the kind of experiment: TLR9 inhibition reporter assay (HEK-Blue cells, SEAP reporter, ODN2006 stimulation).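 Note: compounds tested over 0.05 nM to 50 µM, 22 h incubation, inhibition taken as SEAP signal drop from agonist plus DMSO wells toward a known inhibitor control.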
For a further assay, the target named is human TLR8 (Homo sapiens (Human), UniProt Q9NR97). As to the kind of experiment: TLR8 inhibition reporter assay (HEK-Blue cells, SEAP reporter, R848 stimulation).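 Note: compounds tested from 0.05 nM to 50 µM, 22 h at 37 °C, SEAP measured with HEK-Blue Detection, inhibition relative to agonist plus DMSO versus a known inhibitor.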 On the technique in general: In a reporter assay the amount or activity of a reporter protein is the signal.
human TLR8, sequence (Q9NR97 27-1041): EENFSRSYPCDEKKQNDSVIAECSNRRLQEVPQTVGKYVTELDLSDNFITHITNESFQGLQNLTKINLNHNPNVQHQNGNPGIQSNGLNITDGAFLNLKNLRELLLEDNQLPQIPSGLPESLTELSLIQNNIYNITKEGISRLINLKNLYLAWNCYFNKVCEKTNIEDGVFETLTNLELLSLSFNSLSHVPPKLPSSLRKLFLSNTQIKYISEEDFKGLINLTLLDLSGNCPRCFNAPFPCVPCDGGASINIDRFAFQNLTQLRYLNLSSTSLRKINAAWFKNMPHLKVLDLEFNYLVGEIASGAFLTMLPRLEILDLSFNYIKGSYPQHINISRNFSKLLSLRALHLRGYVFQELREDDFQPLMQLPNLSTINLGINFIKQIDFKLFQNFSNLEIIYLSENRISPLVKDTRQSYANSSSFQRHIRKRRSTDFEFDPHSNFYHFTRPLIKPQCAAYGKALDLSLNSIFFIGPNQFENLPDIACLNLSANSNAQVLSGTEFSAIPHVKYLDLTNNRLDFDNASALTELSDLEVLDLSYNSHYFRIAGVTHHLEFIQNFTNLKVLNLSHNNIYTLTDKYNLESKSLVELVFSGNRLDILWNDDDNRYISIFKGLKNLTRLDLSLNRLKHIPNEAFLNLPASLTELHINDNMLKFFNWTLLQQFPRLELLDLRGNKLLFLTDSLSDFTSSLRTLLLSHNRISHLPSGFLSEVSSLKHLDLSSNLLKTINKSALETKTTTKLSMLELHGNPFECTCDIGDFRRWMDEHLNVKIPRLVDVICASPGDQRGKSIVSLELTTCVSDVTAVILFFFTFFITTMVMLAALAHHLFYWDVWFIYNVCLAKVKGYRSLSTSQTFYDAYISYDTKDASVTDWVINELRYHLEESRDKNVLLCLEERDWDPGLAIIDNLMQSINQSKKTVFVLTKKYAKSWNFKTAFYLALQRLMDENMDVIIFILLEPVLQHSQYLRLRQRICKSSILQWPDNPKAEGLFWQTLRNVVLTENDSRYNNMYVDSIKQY
The target of another assay is human TLR7 (Homo sapiens (Human), UniProt Q9NYK1). As to the kind of experiment: TLR7 inhibition reporter assay (HEK-Blue cells, SEAP reporter, gardiquimod stimulation). The class given is cell-based.
human TLR7, sequence (Q9NYK1 27-1049): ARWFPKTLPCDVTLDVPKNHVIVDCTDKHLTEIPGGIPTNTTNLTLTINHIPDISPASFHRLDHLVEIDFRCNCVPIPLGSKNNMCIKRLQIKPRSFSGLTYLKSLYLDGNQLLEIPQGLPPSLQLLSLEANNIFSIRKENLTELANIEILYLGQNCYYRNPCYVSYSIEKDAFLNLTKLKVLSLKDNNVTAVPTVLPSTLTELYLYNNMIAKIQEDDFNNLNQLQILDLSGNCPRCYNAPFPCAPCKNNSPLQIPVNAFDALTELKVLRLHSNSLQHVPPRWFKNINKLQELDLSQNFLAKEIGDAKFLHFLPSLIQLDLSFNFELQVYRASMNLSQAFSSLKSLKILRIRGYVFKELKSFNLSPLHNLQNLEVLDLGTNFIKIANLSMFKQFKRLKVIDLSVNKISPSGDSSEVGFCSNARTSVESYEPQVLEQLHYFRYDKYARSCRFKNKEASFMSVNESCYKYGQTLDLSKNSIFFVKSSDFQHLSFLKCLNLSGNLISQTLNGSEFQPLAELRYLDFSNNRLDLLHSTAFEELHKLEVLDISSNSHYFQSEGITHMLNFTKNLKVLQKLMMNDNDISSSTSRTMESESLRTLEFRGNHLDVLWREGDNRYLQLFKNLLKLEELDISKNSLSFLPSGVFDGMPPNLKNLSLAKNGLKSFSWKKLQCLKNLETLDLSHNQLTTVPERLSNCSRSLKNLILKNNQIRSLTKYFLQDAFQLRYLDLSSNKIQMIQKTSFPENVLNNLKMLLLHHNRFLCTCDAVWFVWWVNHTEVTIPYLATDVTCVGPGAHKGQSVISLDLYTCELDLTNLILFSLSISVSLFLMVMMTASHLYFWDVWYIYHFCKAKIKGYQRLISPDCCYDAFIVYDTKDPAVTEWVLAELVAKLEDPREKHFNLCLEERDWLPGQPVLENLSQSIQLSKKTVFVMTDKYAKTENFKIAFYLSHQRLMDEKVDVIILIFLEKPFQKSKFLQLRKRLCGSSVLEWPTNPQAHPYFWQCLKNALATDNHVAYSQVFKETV
Setting [1] is: read-out: TLR9 IC50, HEK-Blue cells overexpressing human TLR9, ODN2006 5 nM.
[2] abbreviates: read-out: TLR8 IC50, HEK-Blue cells overexpressing human TLR8, R848 15.9 μM.
The mark [3] stands for this setting: HEK-Blue cells overexpressing human TLR7, gardiquimod 7.5 μM.
[4] abbreviates: read-out: TLR9 IC50, HEK-Blue cells, ODN2006 5 nM.
[5] abbreviates: read-out: TLR8 IC50, HEK-Blue cells, R848 15.9 μM.
Setting [6] is: HEK-Blue cells, gardiquimod 7.5 μM.
Setting [7] is: TLR9 IC50, HEK-Blue cells overexpressing human TLR9, ODN2006 5 nM.
Setting [8] is: TLR8 IC50, HEK-Blue cells overexpressing human TLR8, R848 15.9 μM.

Like-named read-outs stand apart in the source and are kept apart here.

human TLR9, sequence (Q9NR96 26-1032): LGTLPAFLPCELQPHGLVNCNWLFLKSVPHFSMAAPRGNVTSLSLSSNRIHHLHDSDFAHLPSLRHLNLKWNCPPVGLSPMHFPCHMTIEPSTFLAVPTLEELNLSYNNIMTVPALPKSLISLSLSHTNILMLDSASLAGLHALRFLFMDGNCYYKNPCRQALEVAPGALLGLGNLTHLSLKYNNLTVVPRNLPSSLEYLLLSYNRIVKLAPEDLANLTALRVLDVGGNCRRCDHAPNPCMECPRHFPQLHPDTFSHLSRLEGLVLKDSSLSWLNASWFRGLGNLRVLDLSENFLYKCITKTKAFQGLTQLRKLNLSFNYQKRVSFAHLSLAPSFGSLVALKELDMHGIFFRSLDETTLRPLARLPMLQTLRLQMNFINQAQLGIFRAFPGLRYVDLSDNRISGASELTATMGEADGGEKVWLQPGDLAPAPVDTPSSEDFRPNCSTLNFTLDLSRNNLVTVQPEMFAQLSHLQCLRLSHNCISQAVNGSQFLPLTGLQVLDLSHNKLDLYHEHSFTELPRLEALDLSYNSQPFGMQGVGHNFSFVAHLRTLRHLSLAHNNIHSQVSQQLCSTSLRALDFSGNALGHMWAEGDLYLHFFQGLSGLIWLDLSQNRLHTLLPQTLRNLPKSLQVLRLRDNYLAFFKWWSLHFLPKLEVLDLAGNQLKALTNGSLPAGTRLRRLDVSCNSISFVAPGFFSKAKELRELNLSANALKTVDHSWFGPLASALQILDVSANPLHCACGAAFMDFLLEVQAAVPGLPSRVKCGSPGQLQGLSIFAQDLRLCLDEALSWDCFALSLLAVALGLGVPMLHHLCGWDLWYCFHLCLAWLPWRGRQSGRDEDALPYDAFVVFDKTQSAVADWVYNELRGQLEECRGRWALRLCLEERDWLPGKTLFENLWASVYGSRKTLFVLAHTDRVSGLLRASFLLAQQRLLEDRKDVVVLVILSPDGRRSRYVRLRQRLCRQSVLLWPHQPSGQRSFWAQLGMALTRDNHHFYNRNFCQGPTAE

The term IC50 denotes the midpoint of a concentration-inhibition curve. With `CCC(C)NC(=O)CN1CCC(c2ccc3[nH]c(-c4cc(C)nc(C)c4)c(C(C)C)c3c2)CC1` (centres unmarked) [Example 234, N-(sec-butyl)-2-(4-(2-(2,6-dimethylpyridin-4-yl)-3-isopropyl-1H-indol-5-yl)piperidin-1-yl)acetamide], the IC50 at human TLR9 (setting [1]) stood at 1720 nM; at human TLR8 (setting [2]), 24.9 nM; against human TLR7 (setting [3]), 11.4 nM.
As to `Cc1nccc(-c2[nH]c3ccc(C4CCN(C5CCN(C(C)C)CC5)CC4)cc3c2C)c1C` [Example 812, 2-(2,3-dimethylpyridin-4-yl)-5-(1′-isopropyl-[1,4′-bipiperidin]-4-yl)-3-methyl-1H-indole], the values for the IC50 at human TLR9 (setting [4]), on human TLR8 (setting [5]) and on human TLR7 (setting [6]) were 35 nM, 44.5 nM and 404 nM, respectively.
For `Cc1cc(-c2[nH]c3ccc(C4CCN(C5CCNCC5F)CC4)cc3c2C(C)C)ccn1` (centres unmarked) [Example 705, 5-(3′-fluoro-[1,4′-bipiperidin]-4-yl)-3-isopropyl-2-(2-methylpyridin-4-yl)-1H-indole], the values for the IC50 on human TLR9 (setting [1]), on human TLR8 (setting [2]) and at human TLR7 (setting [3]) were 708 nM, 6.2 nM and 21.9 nM, respectively.
On to `Cc1cc(-c2[nH]c3ccc(C4CCN(CC(=O)N(C)C5CCOCC5)CC4)cc3c2C(C)C)cc(C)n1` [Example 287, 2-(4-(2-(2,6-dimethylpyridin-4-yl)-3-isopropyl-1H-indol-5-yl)piperidin-1-yl)-N-methyl-N-(tetrahydro-2H-pyran-4-yl)acetamide], for which the IC50 stood at 328 nM at human TLR9 (setting [7]) and 22 nM at human TLR8 (setting [8]).
On to `Cc1cc(-c2[nH]c3ccc(C4CCN(Cc5ncn(C)n5)CC4)cc3c2C(C)C)c(F)cn1` [Example 724, 2-(5-fluoro-2-methylpyridin-4-yl)-3-isopropyl-5-(1-((1-methyl-1H-1,2,4-triazol-3-yl)methyl)piperidin-4-yl)-1H-indole], for which the IC50 on human TLR8 (setting [2]) was 9.6 nM; on human TLR7 (setting [3]) it was 13.8 nM.
As for `Cc1cc(-c2[nH]c3ccc(C4CCN(C(=O)CN5CCC(C)CC5)CC4)cc3c2C(C)C)cc(C)n1` [Example 376, 1-(4-(2-(2,6-dimethylpyridin-4-yl)-3-isopropyl-1H-indol-5-yl)piperidin-1-yl)-2-(4-methylpiperidin-1-yl)ethan-1-one], the IC50 on human TLR9 (setting [1]) is 628 nM; on human TLR8 (setting [2]), 20.9 nM.
On the same counts, the results for `Cc1cc(-c2[nH]c3ccc(C4CCN(C(=O)[C@@]5(C)CCCN5)CC4)cc3c2C(C)C)cc(C)n1` [Example 192, (R)-(4-(2-(2,6-dimethylpyridin-4-yl)-3-isopropyl-1H-indol-5-yl)piperidin-1-yl)(2-methylpyrrolidin-2-yl)methanone] are 154 nM and 7.2 nM.
On the same counts, the results for `Cc1cc(-c2[nH]c3ccc(C4CCN(C(=O)C(C)C)CC4)cc3c2C(C)C)cc(C)n1` [Example 202, 1-(4-(2-(2,6-dimethylpyridin-4-yl)-3-isopropyl-1H-indol-5-yl)piperidin-1-yl)-2-methylpropan-1-one] are 39900 nM and 327 nM.
`Cc1cc(-c2[nH]c3ccc(C4CCN(C(=O)CC5C(=O)N(C)C(=O)N5C)CC4)cc3c2C(C)C)cc(C)n1` (centres unmarked) [Example 122, 5-(2-(4-(2-(2,6-dimethylpyridin-4-yl)-3-isopropyl-1H-indol-5-yl)piperidin-1-yl)-2-oxoethyl)-1,3-dimethylimidazolidine-2,4-dione]: the IC50 on human TLR8 (setting [2]) worked out at 44.4 nM; on human TLR7 (setting [3]), 6.7 nM.
For the compound `COCCC(=O)N1CCC(c2ccc3[nH]c(-c4cc(C)nc(C)c4)c(C(C)C)c3c2)CC1` [Example 118, 1-(4-(2-(2,6-dimethylpyridin-4-yl)-3-isopropyl-1H-indol-5-yl)piperidin-1-yl)-3-methoxypropan-1-one], the IC50 on human TLR9 (setting [1]) is over 50000 nM; at human TLR8 (setting [2]), 79.8 nM.
Turning to `Cc1cc(-c2[nH]c3cc(F)c(C4CCN(C5COC5)CC4)cc3c2C(C)C)cc(C)n1` [Example 834, 2-(2,6-dimethylpyridin-4-yl)-6-fluoro-3-isopropyl-5-(1-(oxetan-3-yl)piperidin-4-yl)-1H-indole], the IC50 on human TLR8 (setting [5]) came out at 23.8 nM; on human TLR7 (setting [6]), 4.4 nM.
For the compound `COCCN(C)C(=O)CN1CCC(c2ccc3[nH]c(-c4cc(C)nc(C)c4)c(C(C)C)c3c2)CC1` [Example 254, 2-(4-(2-(2,6-dimethylpyridin-4-yl)-3-isopropyl-1H-indol-5-yl)piperidin-1-yl)-N-(2-methoxyethyl)-N-methylacetamide], the IC50 against human TLR8 (setting [8]) was 17.6 nM; against human TLR7 (setting [3]) it was 9 nM.
With `Cc1cc(-c2[nH]c3ccc(C4CCN(C(=O)C[C@H]5CCCN5)CC4)cc3c2C(C)C)cc(C)n1` [Example 193, (R)-1-(4-(2-(2,6-dimethylpyridin-4-yl)-3-isopropyl-1H-indol-5-yl)piperidin-1-yl)-2-(pyrrolidin-2-yl)ethan-1-one], the IC50 amounted to 228 nM on human TLR9 (setting [1]) and 14.8 nM on human TLR8 (setting [2]).
As for `Cc1cc(-c2[nH]c3ccc(C4CCN(C(=O)C5(C)COC5)CC4)cc3c2C(C)C)cc(C)n1` [Example 207, (4-(2-(2,6-dimethylpyridin-4-yl)-3-isopropyl-1H-indol-5-yl)piperidin-1-yl)(3-methyloxetan-3-yl)methanone], the IC50 worked out at 47400 nM on human TLR9 (setting [1]) and 90.4 nM on human TLR8 (setting [2]).
For `Cc1cc(-c2[nH]c3ccc(C4CCN(C(=O)C5CC(=O)N(C)C5)CC4)cc3c2C(C)C)ccn1` (centres unmarked) [Example 618, 4-(4-(3-isopropyl-2-(2-methylpyridin-4-yl)-1H-indol-5-yl)piperidine-1-carbonyl)-1-methylpyrrolidin-2-one], the IC50 on human TLR9 (setting [1]) was over 50000 nM; on human TLR8 (setting [2]), 107 nM.
Regarding `Cc1cc(-c2[nH]c3ccc(C4CCN(C(=O)c5ccc(C)n(C)c5=O)CC4)cc3c2C(C)C)cc(C)n1` [Example 138, 3-(4-(2-(2,6-dimethylpyridin-4-yl)-3-isopropyl-1H-indol-5-yl)piperidine-1-carbonyl)-1,6-dimethylpyridin-2(1H)-one], the figures for the IC50 on human TLR8 (setting [2]) and on human TLR7 (setting [3]) were 108 nM and 7.6 nM, respectively.
Consider `COC(=O)c1c(-c2cc(C)nc(C)c2)[nH]c2ccc(C3CCNCC3)cc12` [Example 495, methyl 2-(2,6-dimethylpyridin-4-yl)-5-(piperidin-4-yl)-1H-indole-3-carboxylate], for which the IC50 stood at 144 nM on human TLR9 (setting [1]) and 12500 nM at human TLR8 (setting [2]).
Consider `COCCC(=O)N1CCC(c2ccc3[nH]c(-c4ccnc(C)c4)c(C(C)C)c3c2)CC1` [Example 571, 1-(4-(3-isopropyl-2-(2-methylpyridin-4-yl)-1H-indol-5-yl)piperidin-1-yl)-3-methoxypropan-1-one], for which the figures for the IC50 at human TLR8 (setting [2]) and at human TLR7 (setting [3]) were 102 nM and 79.3 nM, respectively.
`Cc1cc(-c2[nH]c3ccc(C4CCN(C(=O)C5CCNC5)CC4)cc3c2C(C)C)cc(C)n1` (centres unmarked) [Example 186, (4-(2-(2,6-dimethylpyridin-4-yl)-3-isopropyl-1H-indol-5-yl)piperidin-1-yl)(pyrrolidin-3-yl) methanone]: the IC50 on human TLR9 (setting [7]) stood at 516 nM; at human TLR8 (setting [8]) it was 22.2 nM.
In the case of `CCc1cc(-c2[nH]c3ccc(C4CCNCC4)cc3c2C(C)C)cc(C)n1` [Example 479, 2-(2-ethyl-6-methylpyridin-4-yl)-3-isopropyl-5-(piperidin-4-yl)-1H-indole], the IC50 at human TLR9 (setting [1]) came to 3400 nM; against human TLR7 (setting [3]) it was 98.4 nM.
For `Cc1nccc(-c2[nH]c3ccc(C4CCN(Cc5cnc[nH]5)CC4)cc3c2C(C)C)c1N` [Example 745, 4-(5-(1-((1H-imidazol-5-yl)methyl)piperidin-4-yl)-3-isopropyl-1H-indol-2-yl)-2-methylpyridin-3-amine], the IC50 against human TLR8 (setting [8]) amounted to 130 nM; on human TLR7 (setting [3]), 99.9 nM.
`Cc1cc(-c2[nH]c3ccc(C4CCN(C(=O)CCn5ccc(C)n5)CC4)cc3c2C(C)C)cc(C)n1` [Example 143, 1-(4-(2-(2,6-dimethylpyridin-4-yl)-3-isopropyl-1H-indol-5-yl)piperidin-1-yl)-3-(3-methyl-1H-pyrazol-1-yl)propan-1-one]: the results for the IC50 on human TLR9 (setting [1]) and on human TLR8 (setting [2]) were 25000 nM and 172 nM, respectively.
For `Cc1cc(-c2[nH]c3ccc(C4CCN(C(=O)c5cccnc5)CC4)cc3c2C(C)C)cc(C)n1` [Example 113, (4-(2-(2,6-dimethylpyridin-4-yl)-3-isopropyl-1H-indol-5-yl)piperidin-1-yl)(pyridin-3-yl)methanone], the figures for the IC50 at human TLR8 (setting [2]) and against human TLR7 (setting [3]) were 78.6 nM and 5.9 nM, respectively.
For `CNCCN1CCC(c2ccc3[nH]c(-c4ccnc(F)c4)c(C)c3c2)CC1` [Example 750, 2-(4-(2-(2-fluoropyridin-4-yl)-3-methyl-1H-indol-5-yl)piperidin-1-yl)-N-methylethan-1-amine], the values for the IC50 at human TLR9 (setting [1]) and on human TLR7 (setting [3]) were 270 nM and 332 nM, respectively.
As to `CCc1c(-c2ccncc2)[nH]c2ccc(C3CCN(C4CCN(CC)CC4)CC3)cc12` [Example 809, 3-ethyl-5-(1′-ethyl-[1,4′-bipiperidin]-4-yl)-2-(pyridin-4-yl)-1H-indole], the IC50 was 306 nM on human TLR9 (setting [4]) and 884 nM against human TLR7 (setting [6]).
Take `Cc1cc(-c2[nH]c3ccc(C4CCN(c5cccnc5)CC4)cc3c2C(C)C)ccn1` [Example 847, 3-isopropyl-2-(2-methylpyridin-4-yl)-5-(1-(pyridin-3-yl)piperidin-4-yl)-1H-indole]: the IC50 came to 206 nM on human TLR8 (setting [5]) and 61.9 nM against human TLR7 (setting [6]).
In the case of `CNCCN1CCC(c2ccc3[nH]c(-c4ccnc(C(F)(F)F)c4)c(C)c3c2)CC1` [Example 747, N-methyl-2-(4-(3-methyl-2-(2-(trifluoromethyl)pyridin-4-yl)-1H-indol-5-yl)piperidin-1-yl)ethan-1-amine], the IC50 on human TLR9 (setting [1]) stood at 525 nM; against human TLR7 (setting [3]) it was 410 nM.
Take `COc1cc(-c2[nH]c3ccc(C4CCNCC4)cc3c2C(C)C)cc(C)n1` [Example 46, 3-isopropyl-2-(2-methoxy-6-methylpyridin-4-yl)-5-(piperidin-4-yl)-1H-indole]: the figures for the IC50 at human TLR9 (setting [1]) and at human TLR7 (setting [3]) were 2340 nM and 1.5 nM, respectively.

Source of the values: US10660877B2 (BRISTOL-MYERS SQUIBB COMPANY, priority 2016, dated 2020).
